Results from US20090239944A1, “Novel Use of Organic Compounds” (priority 2005, published 2009).

Legend:
C3H10T1/2 cells [1] = assay: Glucose uptake of adipocytes (radioactive 2-deoxyglucose, basal, absence of insulin); format: cell-based; conditions: 48-h treatment; for Basal glucose uptake: absence of insulin, ± SEM, DMSO control = 100%; for Basal glucose uptake (result in words): different concentrations
Method: C3H10T1/2 cells (ATCC CCL-226) were grown for 5 days to confluence in DMEM supplemented with 10% FBS medium and induced with a mixture of insulin, dexamethasone and 3-isobutyl-1-methylxanthine to differentiate into adipocytes. Nine days after the beginning of induction, cells were treated for 48-h with the compound of the formula I-1 at different concentrations as shown in Table 1. Glucose uptake was determined using radioactive 2-deoxyglucose (10 μM 2-DG in HBS+0.5 μCi/ml of 3-[H]-2-DG), measuring glucose uptake in the absence of insulin. Basal glucose uptake was increased by 48-h treatment with the compound of the formula I-1 in a dose-dependent manner (Table 1). Growing, induction and treatment of C3H10T1/2 cells were exactly as described in Example 1, with the exception that the compound of the formula I-3 at different concentrations was used instead of the compound of the formula I-1. […] Control: C3H10T1/2 cells treated for 48 h with DMSO at the same concentration as compound-treated cells and set at 100%

C3H10T1/2 cells [2] = assay: Differentiation of adipocytes (oil Red O staining, absorbance at 540 nm); format: cell-based; conditions: for Differentiation of the cells into adipocytes (result in words): co-treatment with insulin, compared with insulin alone; for Mean OD ± SEM (oil Red O, 540 nm): 10-day treatment
Method: C3H10T1/2 cells were grown to confluence as described in Example 1, then treated for 10 days with insulin alone (negative control) or with a mixture of insulin and the compound of the formula I-1 at different concentrations (see Table 2), with re-feeding with fresh medium and compounds every 48-h. After 10-days of treatment, the cells were stained with oil Red O as follows: cells were washed 2× in PBS and fixed in 10% formalin at room temperature for 1 h. After removal of formalin, 200 μl of oil Red O staining solution (3:2 mixture of 0.5% w/v oil Red O stock solution and water) was applied to each well. The cells were incubated for 20 min at room temperature, washed twice in 2×PBS and incubated for 10 min with 300 μl of isopropanol/well for oil Red O extraction. Quantification of oil Red O was determined by measuring absorbance at 540 nm (mean OD). […] C3H10T1/2 cells were grown and treated as described in Example 4 with the exception that the compound of the formula I-2 was used instead of the compound of the formula I-1. The measurement of adipocyte differentiation using the oil Red O assay was performed as described in Example 4. […] C3H10T1/2 cells were grown and treated as described in Example 4 with the exception that the compound of the formula I-3 was used instead of the compound of the formula I-1. The measurement of adipocyte differentiation using the oil Red O assay was performed as described in Example 4.

C57BLKS/J db/db mice = assay: Glucose tolerance, 14-day study in db/db mice (blood glucose, OGTT, FFA); format: in vivo
Method: The efficacy of the compound of the formula I-1 on glucose tolerance was tested in a 14-day study in C57BLKS/J db/db mice (n=10/group), a model of late type 2 diabetes mellitus with severe hyperglycemia.
Male db/db mice were obtained from Jackson Laboratory (Bar Harbor, Me., USA). Adult mice aged 8 weeks were used in the experiment. Mice were housed individually in plastic cages with bedding and allowed free access to standard rodent food and tap water. The animal rooms were controlled for temperature (24° C.), humidity (55%), and light (12-h light-dark cycle). The animals were randomized in two groups and the compound of the formula I-1 was administered orally to one of the groups for 14 days at a dose of 200 mg/kg BW/day. After 14 days of treatment the concentration of glucose was determined in blood from fed animals, i.e., animals which were not restricted from food. After a period of 10 days of treatment an oral glucose tolerance test (OGTT) was performed. For the OGTT mice were fasted overnight and then a 1-g glucose/kg BW solution was orally administered. Blood samples were taken before and 15, 30, 45, 60, 90, 120, 150, 180 min after the glucose challenge for determination of blood glucose levels and then the area under the curve (AUC) was determined. Blood glucose was measured by a glucose analyzer (Glucotrend Premium, Roche Diagnostics, Rotkreuz, Switzerland). The glucose and the free fatty acid (FFA) levels of fed animals (see above) were lowered after 14 days of treatment with the compound of the formula I-1. After 10 days of treatment with the compound of the formula I-1 the glucose levels of fasted animals, i.e., animals with an overnight fasting (see above) were decreased as compared to the untreated control group.

[3] = compound 1 × 10^−5 M + insulin 1 × 10^−7 M
[4] = after 14 days of treatment, 200 mg/kg BW/day orally

CC1(COc2ccc(CC3SC(=O)NC3=O)cc2)CCCCC1 (centres unmarked) [Ciglitazone, ciglitazone, reference compound]
Basal glucose uptake (C3H10T1/2 cells [1]; 5 × 10^−5 M): 496.178 ± 61.86 % of control

COc1ccc(C(=O)/C=C/c2c(CCN(C)C(C)=O)cc3c(c2OC)OCO3)cc1 [I-1]
Differentiation of the cells into adipocytes (result in words) (C3H10T1/2 cells [2]): higher differentiation of the cells into adipocytes than insulin alone
Mean OD ± SEM (oil Red O, 540 nm) (C3H10T1/2 cells [2]; [3]): 0.69 ± 0.019
glucose AUC of an OGTT (result in words) (C57BLKS/J db/db mice; 1 g glucose/kg body weight, day 10): significantly reduced
Glucose AUC (C57BLKS/J db/db mice; OGTT (1 g glucose/kg BW) on day 10, 0-180 min, 200 mg/kg BW/day orally, control 69673): 54295
glucose levels of fasted animals (result in words) (C57BLKS/J db/db mice; after 10 days of treatment, compared to the untreated control group): decreased
free fatty acid (FFA) levels of fed animals (result in words) (C57BLKS/J db/db mice; [4]): lowered
glucose levels of fed animals (result in words) (C57BLKS/J db/db mice; [4]): lowered
blood glucose levels during the OGTT (result in words) (C57BLKS/J db/db mice; compared with the control group, 15-180 min after glucose challenge): lower at all time points
Blood Glucose Fasted (C57BLKS/J db/db mice; db/db mice, 200 mg/kg BW/day orally, after 10 days, overnight fasting, control 175): 135 mg/dL
FFA (C57BLKS/J db/db mice; db/db mice, 200 mg/kg BW/day orally, after 14 days, fed animals, control 15.95): 12.38 mg/dL
Blood Glucose Fed (C57BLKS/J db/db mice; db/db mice, 200 mg/kg BW/day orally, after 14 days, fed animals, control 859): 771 mg/dL
Basal glucose uptake (C3H10T1/2 cells [1]; 1 × 10^−5 M): 94.58 ± 0.95 % of control
Basal glucose uptake (C3H10T1/2 cells [1]; 1 × 10^−6 M): 97.6 ± 22.9 % of control
Basal glucose uptake (C3H10T1/2 cells [1]; 2.4 × 10^−5 M): 128.6 ± 0.89 % of control
Basal glucose uptake (C3H10T1/2 cells [1]; 5 × 10^−4 M): 194.058 ± 0.05 % of control
Basal glucose uptake (result in words) (C3H10T1/2 cells [1]): increased

COc1ccc(C(=O)/C=C/c2cccc(OC(=O)/C=C/c3ccccc3)c2)cc1 [I-2]
Differentiation of the cells into adipocytes (result in words) (C3H10T1/2 cells [2]): higher differentiation of the cells into adipocytes than insulin alone
Mean OD ± SEM (oil Red O, 540 nm) (C3H10T1/2 cells [2]; [3]): 0.45 ± 0.037

COc1ccc(/C=C/C(=O)c2ccc(OC(=O)c3ccccc3)cc2)cc1OC [I-3]
Differentiation of the cells into adipocytes (result in words) (C3H10T1/2 cells [2]): higher differentiation of the cells into adipocytes than insulin alone
Mean OD ± SEM (oil Red O, 540 nm) (C3H10T1/2 cells [2]; [3]): 0.53 ± 0.025
Mean OD ± SEM (oil Red O, 540 nm) (C3H10T1/2 cells [2]; compound 2 × 10^−4 M + insulin 1 × 10^−7 M): 0.34 ± 0.087
Mean OD ± SEM (oil Red O, 540 nm) (C3H10T1/2 cells [2]; compound 5 × 10^−5 M + insulin 1 × 10^−7 M): 0.53 ± 0.017
Basal glucose uptake (C3H10T1/2 cells [1]; 1 × 10^−5 M): 133.28 ± 23.4 % of control
Basal glucose uptake (C3H10T1/2 cells [1]; 1 × 10^−6 M): 105.37 ± 2.21 % of control
Basal glucose uptake (C3H10T1/2 cells [1]; 2 × 10^−4 M): 142.84 ± 18.05 % of control
Basal glucose uptake (C3H10T1/2 cells [1]; 5 × 10^−5 M): 116.17 ± 15.96 % of control
Basal glucose uptake (result in words) (C3H10T1/2 cells [1]): increase

Insulin: insulin alone, negative control of the adipocyte differentiation test
Mean OD ± SEM (oil Red O, 540 nm) (C3H10T1/2 cells [2]; insulin 1 × 10^−7 M alone (negative control)): 0.28 ± 0.03
